The assay deals with human ATX (Homo sapiens (Human), UniProt Q13822). Nature of the assay: Human ATX enzyme inhibition assay (fluorescence quenching, MR121 substrate). It counts as biochemical. The note with it: human His-tagged ATX 30 nM, MR121 substrate 1 μM, 30° C. The method, boiled down: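 Human His-tagged ATX (30 nM final) preincubated 15 min at 30 °C with serially diluted compounds in Tris buffer pH 8.0 with Ca2+, Mg2+ and 0.01% Triton X-100. MR121/tryptophan-labelled substrate analogue (1 μM final) then added for 15 min at 30 °C; cleavage read by fluorescence dequenching.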

SMILES strings stand for the structures.

For orientation: IC50 means the point on the concentration scale where inhibition reaches its midpoint. A lower IC50 goes with inhibition by little substance.

In the case of `Cc1cc(OCc2n[nH]c3nc(OCC(O)CO)ncc23)c(C(C)(C)C)cc1Cl` (stereo not drawn) [Example D34, 3-[[3-[(2-tert-Butyl-4-chloro-5-methylphenoxy)methyl]-1H-pyrazolo[3,4-d]pyrimidin-6-yl]oxy]propane-1,2-diol], half-maximal inhibition (IC50) was put at 2 nM.

The compound `Cc1cc(OCc2n[nH]c(=O)n2C)c(-c2cc(OCC(C)C)ccc2F)cc1Cl` [Example B58] had an IC50 of 16 nM. The value for `Cc1cc(OCc2n[nH]c(=O)n2C)c(-c2cccc(S(C)(=O)=O)c2)cc1Cl` [Example B6] was 8 nM.

As for `Cc1cc(OCc2n[nH]c3ncccc23)c(-c2cccc(C(=O)N3CCOCC3)c2)cc1Cl` [Example D17, [3-[5-Chloro-4-methyl-2-(1H-pyrazolo[3,4-b]pyridin-3-ylmethoxy)phenyl]phenyl]-morpholin-4-ylmethanone], the IC50 stood at 2 nM.

`Cc1cc(C(C)(C)C)c(OCc2n[nH]c3cnccc23)cc1C#N` [Example D49] came in with an IC50 of 2 nM.

On to `Cc1cc(OCc2n[nH]c3ncccc23)c(-c2cccc(C(=O)N(C)C)c2)cc1Cl` [Example D18], for which the IC50 worked out at 17 nM. `Cc1cc(OCc2n[nH]c(=O)n2C)c(-c2cccc(C(=O)O)c2)cc1Cl` [Example B43, 3-[5-Chloro-4-methyl-2-[(4-methyl-5-oxo-1H-1,2,4-triazol-3-yl)methoxy]phenyl]benzoic acid] yielded an IC50 of 1100 nM. Under `Cc1cc(OCc2cc(C(=O)N3CCCC3)[nH]n2)c(C(C)(C)C)cc1Cl` [Example F4, (3-((2-(tert-Butyl)-4-chloro-5-methylphenoxy)methyl)-1H-pyrazol-5-yl)(pyrrolidin-1-yl)methanone] stands 8 nM. For the compound `CC(C)(C)c1cc(Cl)c(F)cc1OCc1n[nH]c2nc(F)ccc12` [Example D12], half-maximal inhibition (IC50) was put at 1 nM. The value for `N#Cc1cc(-c2cc(OC(F)(F)F)ccc2F)c(OCc2n[nH]c3ncccc23)cc1Cl` [Example D55] was 3 nM. On to `Cc1cc(C(C)(C)C)c(OCc2n[nH]c3ncccc23)cc1C#N` [Example D48], for which inhibition was half-maximal at 32 nM (IC50). The value for `Cc1cc(OCc2n[nH]c(=O)n2C)c(-c2cc(C#N)ccc2OC(F)(F)F)cc1Cl` [Example B86] was 49 nM. For `COCCN(C)C(=O)c1ccc(F)c(-c2cc(Cl)c(C)cc2OCc2n[nH]c(=O)n2C)c1` [Example B73], it took 9 nM to reach half-maximal inhibition (IC50). The value for `Cc1cc(OCc2n[nH]c(=O)n2C)c(-c2c(F)ccc3c2oc(=O)n3C)cc1Cl` [Example B77] was 15 nM; that for `Cc1cc(OCc2n[nH]c3cnccc23)c(-c2cc(C(=O)N3CCN(C)C(=O)C3)ccc2F)cc1Cl` [Example D44, 4-[3-[5-Chloro-4-methyl-2-(1H-pyrazolo[3,4-c]pyridin-3-ylmethoxy)phenyl]-4-fluorobenzoyl]-1-methylpiperazin-2-one] was 9 nM; that for `CN(CCO)c1ccc2c(COc3cc(F)c(Cl)cc3C(C)(C)C)n[nH]c2n1` [Example D14] was 13 nM. The compound `Cc1cc(OCc2n[nH]c3nc(F)ccc23)c(C(C)(C)C)cc1Cl` [Example D6, 3-[(2-tert-Butyl-4-chloro-5-methylphenoxy)methyl]-6-fluoro-1H-pyrazolo[3,4-b]pyridine] showed an IC50 of 19 nM. The value for `Cc1cc(OCc2n[nH]c(=O)n2C)c(-c2cc(C(F)(F)F)nn2C)cc1Cl` [Example B24, 3-[[4-Chloro-5-methyl-2-[2-methyl-5-(trifluoromethyl)pyrazol-3-yl]phenoxy]methyl]4-methyl-1H-1,2,4-triazol-5-one] was 126 nM; that for `Cc1cc(OCc2n[nH]c(=O)n2C)c(-c2cc(CN(C)C(=O)C3CC3)ccc2F)cc1Cl` [Example B80] was 5 nM. Under `Cc1ccc(C(C)C)c(OCc2n[nH]c(=O)n2C)c1` [Example A27, 4-Methyl-3-[(5-methyl-2-propan-2-ylphenoxy)methyl]-1H-1,2,4-triazol-5-one] stands 19 nM; under `Cc1cc(OCc2n[nH]c(=O)n2C(C)C)c(C(C)(C)C)cc1C#N` [Example A26, 5-tert-Butyl-2-methyl-4-[(5-oxo-4-propan-2-yl-1H-1,2,4-triazol-3-yl)methoxy]benzonitrile], 12 nM. The value for `Cc1cc(OCc2n[nH]c(=O)n2C)c(-c2cccc(C(=O)NCCO)c2)cc1Cl` [Example B36] was 82 nM; that for `Cc1cc(OCc2n[nH]c(=O)n2C)c(C2CCC2)cc1Cl` [Example A31] was 19 nM.

Compound `Cc1cc(OCc2n[nH]c(=O)n2C)c(-c2cc(C(=O)N3CCN(C)C(=O)C3)ccc2F)cc1Cl` [Example B65] came in with an IC50 of 13 nM. The value for `COc1ncccc1-c1cc(C#N)c(Cl)cc1OCc1n[nH]c(=O)n1C` [Example B54] was 29 nM; that for `Cn1cncc1-c1ccc(OCc2n[nH]c(=O)n2C)c(C(C)(C)C)c1` [Example A9] was 2610 nM. Under `Cc1cc(OCc2ccc(=O)[nH]n2)c(C2CCCCC2)cc1Cl` [Example C6, 3-[(4-chloro-2-cyclohexyl-5-methylphenoxy)methyl]-1H-pyridazin-6-one] stands 7 nM; under `Cc1cc(OCc2n[nH]c(=O)n2C)c(-c2cc(CNC(=O)C3CC3)ccc2F)cc1Cl` [Example B79], 10 nM. On to `N#Cc1cc(-c2cc(OC3CC3)ccc2F)c(OCc2ccc(=O)[nH]n2)cc1Cl` [Example C14], for which the IC50 turned out to be 5 nM. The value for `Cc1cc(OCc2n[nH]c(=O)n2C)c(-c2cc(C(=O)NC3CC3)ccc2F)cc1Cl` [Example B15] was 11 nM; that for `CC(C)(C)c1cc(Cl)c(F)cc1OCc1n[nH]c2nc(NCCO)ccc12` [Example D11] was 4.5 nM.

As to `Cc1cc(OCc2n[nH]c3c2CN(C(=O)OC(C)(C)C)CC3)c(C(C)(C)C)cc1Cl` [Example E1, tert-Butyl 3-((2-tert-butyl-4-chloro-5-methylphenoxy)methyl)-6,7-dihydro-1H-pyrazolo[4,3-c]pyridine-5(4H)-carboxylate], the half-inhibitory concentration (IC50) was found to be 746 nM. Under `COc1ccc(C(F)(F)F)cc1-c1cc(Cl)c(C)cc1OCc1n[nH]c(=O)n1C` [Example B59] stands 25 nM. The value for `Cc1cc(OCc2n[nH]c3nc(OCCO)ccc23)c(C(C)(C)C)cc1Cl` [Example D13, 2-[[3-[(2-t-Butyl-4-chloro-&-methylphenoxy)methyl]-1H-pyrazolo[3,4-b]pyridin-6-yl]oxy]ethanol] was 13200 nM; that for `Cc1noc(-c2ccc(OCc3n[nH]c(=O)n3C)c(C(C)(C)C)c2)n1` [Example A4] was 59 nM.

With `Cc1cc(OCc2n[nH]c3nc(OCCO)ncc23)c(C(C)(C)C)cc1Cl` [Example D31, 2-[[3-[(2-tert-Butyl-4-chloro-&-methylphenoxy)methyl]-1H-pyrazolo[3,4-d]pyrimidin-6-yl]oxy]ethanol], the IC50 is 7 nM. `Cc1cc(OCc2n[nH]c3nc(OCCO)ncc23)c(C(C)(C)C)cc1C#N` [Example D38, 5-tert-Butyl-4-[[6-(2-hydroxyethoxy)-1H-pyrazolo[3,4-d]pyrimidin-3-yl]methoxy]-2-methylbenzonitrile] had an IC50 of 9 nM.

For the compound `CC(C)(C)c1cc(Cl)c(C#N)cc1OCc1n[nH]c2cnccc12` [Example D50], the IC50 worked out at 1 nM. Under `N#Cc1cc(-c2cc(OC(F)(F)F)ccc2F)c(OCc2n[nH]c3ccncc23)cc1Cl` [Example D54] stands 28 nM.

Compound `Cn1ccnc1-c1ccc(OCc2n[nH]c(=O)n2C)c(C(C)(C)C)c1` [Example A6] displayed an IC50 of 523 nM. Take `Cc1cc(OCc2ccc(=O)[nH]n2)c(C2CC2)cc1Cl` [Example C2, 3-[(4-Chloro-2-cyclopropyl-5-methylphenoxy)methyl]-1H-pyridazin-6-one]: the IC50 was 22 nM.

`Cc1cc(OCc2n[nH]c(=O)n2C)c(-c2cc(OCC3CCOC3)ccc2F)cc1Cl` (stereo not drawn) [Example B67] gave an IC50 of 6 nM. The compound `CC(C)(C)c1cc(S(C)(=O)=O)ccc1OCc1n[nH]c2ncccc12` [Example D45] gave an IC50 of 23 nM. `Cc1cc(OCc2n[nH]c3nc(OCC(O)CO)ccc23)c(C(C)(C)C)cc1Cl` (stereo not drawn) [Example D15, 3-[[3-[(2-tert-Butyl-4-chloro-5-methylphenoxy)methyl]-1H-pyrazolo[3,4-b]pyridin-6-yl]oxy]propane-1,2-diol] returned an IC50 of 6 nM. Under `CN(C)C(=O)c1cccc(-c2cc(C#N)c(Cl)cc2OCc2n[nH]c(=O)n2C)c1` [Example B39] stands 93 nM. The value for `Cc1cc(OCc2n[nH]c(=O)n2C)c(-c2cnccn2)cc1Cl` [Example B22, 3-[(4-Chloro-5-methyl-2-pyrazin-2-ylphenoxy)methyl]-4-methyl-1H-1,2,4-triazol-5-one] was 227 nM. Compound `Cc1cc(OCc2ccc(=O)[nH]n2)c(C2CCC2)cc1Cl` [Example C5, 3-[(4-chloro-2-cyclobutyl-5-methylphenoxy)methyl]-1H-pyridazin-6-one] registered an IC50 of 1 nM. Under `Cc1cc(OCc2n[nH]c3ccccc23)c(C(C)(C)C)cc1S(C)(=O)=O` [Example D10] stands > 82000 nM. Under `Cc1cc(OCc2n[nH]c(=O)n2C)c(-c2cccc(C(=O)N(C)CCO)c2)cc1Cl` [Example B45, 3-[5-Chloro-4-methyl-2-[(4-methyl-5-oxo-1H-1,2,4-triazol-3-yl)methoxy]phenyl]-N-(2-hydroxyethyl)-N-methylbenzamide] stands 29 nM; under `Cc1cc(OCc2n[nH]c(=O)n2C)c(-c2ncco2)cc1Cl` [Example B29, 3-[[4-Chloro-5-methyl-2-(1,3-oxazol-2-yl)phenoxy]methyl]-4-methyl-1H-1,2,4-triazol-5-one], 78 nM; under `Cc1cc(OCc2cc(C(=O)N(C)C)[nH]n2)c(C(C)(C)C)cc1Cl` [Example F5, 3-((2-(tert-Butyl)-4-chloro-5-methylphenoxy)methyl)-N,N-dimethyl-1H-pyrazole-5-carboxamide], 15 nM.

For the origin of these results see patent publication US11352330B2, “Phenoxymethyl derivatives” (Hoffmann-La Roche Inc., priority 2015, dated 2022).
